The target in series [1] is T1, E3 ubiquitin-protein ligase XIAP (Homo sapiens, UniProt P98170).
The nature of series [2]: Clearance in rat at 2 mg/kg, iv. The class given is ADME, organism-based. Also noted: dose 2 mg/kg, route intravenous. The following applies: in vivo.
Series [3] can be described thus: Metabolic stability in rat blood assessed as compound remaining at 1 uM after 4 hrs by LC-MS/MS analysis. The class given is ADME, tissue-based. The following applies: read-out: Stability.
A further series deals with Plasma. As to the kind of experiment: In vivo metabolic stability in rat plasma assessed as hydrolysis of the alanine amide at 4 mg/kg, iv. The class given is ADME, organism-based. Further details: dose 4 mg/kg, route intravenous.
Series [4] is described as follows: In vivo metabolic stability in rat urine assessed as hydrolysis of the alanine amide at 4 mg/kg, iv. The class given is ADME, organism-based. Also noted: dose 4 mg/kg, route intravenous.
Series [5] can be described thus: Oral bioavailability in mouse at 10 mg/kg. The following applies: in vivo. In kind it is ADME, organism-based.
A short description of series [6]: AUC in mouse at 1 mg/kg, iv. The following applies: plasma. Also noted: dose 1 mg/kg, route intravenous. In kind it is ADME, organism-based.
Series [7] is described as follows: Cmax in mouse at 1 mg/kg, iv. The class given is ADME, organism-based. Also noted: dose 1 mg/kg, route intravenous. To be noted: in vivo.
Series [8] addresses T2, Cytochrome P450 3A4 (Homo sapiens, UniProt P08684). As to the kind of experiment: Time dependent inhibition of CYP3A4 (unknown origin). The class given is ADME.
Series [9] addresses T2, Cytochrome P450 3A4. In words: Induction of CYP3A4 (unknown origin). In kind it is ADME.
Series [10] concerns the target T2, Cytochrome P450 3A4. In words: Inhibition of CYP3A4 (unknown origin). In kind it is ADME.
The nature of series [11]: Volume of distribution at steady state in mouse at 1 mg/kg, iv. The class given is ADME, organism-based. Also noted: dose 1 mg/kg, route intravenous. To be noted: in vivo, read-out: Vdss.
Series [12] is described as follows: Clearance in mouse at 1 mg/kg, iv. The following applies: in vivo. Also noted: dose 1 mg/kg, route intravenous. The class given is ADME, organism-based.
Series [13] concerns the target T3, Baculoviral IAP repeat-containing protein 2 (Homo sapiens, UniProt Q13490). As to the kind of experiment: Inhibition of His-thrombin-TEV-tagged cIAP1 BIR3 domain (260 to 352) (unknown origin) after 1 hr by TR-FRET assay. On the technique in general: TR-FRET usually uses a lanthanide donor and a delayed reading to cut background.
Series [14] in a line: Cmax in mouse at 10 mg/kg, po. In kind it is ADME, organism-based. Further details: dose 10 mg/kg, route oral. The following applies: in vivo.
The nature of series [15]: Half life in mouse at 10 mg/kg, po. To be noted: in vivo. In kind it is ADME, organism-based. Further details: dose 10 mg/kg, route oral.
Series [16] is described as follows: Half life in mouse at 1 mg/kg, iv. In kind it is ADME, organism-based. Also noted: dose 1 mg/kg, route intravenous. To be noted: in vivo.
For series [17], the target named is T3, Baculoviral IAP repeat-containing protein 2. As to the kind of experiment: Inhibition of His-thrombin-TEV-tagged cIAP1 BIR2 domain (174 to 256) (unknown origin) after 1 hr by TR-FRET assay.
Series [18] is described as follows: AUC in mouse at 10 mg/kg, po. The class given is ADME, organism-based. Also noted: dose 10 mg/kg, route oral. To be noted: plasma.
The test system of series [19] is Hepatocyte. In words: Drug metabolism in rat hepatocytes assessed as demethylation of N-methyl-L-alanine. The class given is ADME, cell-based.
The subject of series [20] is Hepatocyte. As to the kind of experiment: Drug metabolism in human hepatocytes assessed as demethylation of N-methyl-L-alanine. In kind it is ADME, cell-based.
The test system of series [21] is Hepatocyte. As to the kind of experiment: Drug metabolism in human hepatocytes assessed as demethylation of methoxy group of naphthalene. In kind it is ADME, cell-based.
Series [22] concerns Hepatocyte. In words: Drug metabolism in rat hepatocytes assessed as demethylation of methoxy group of naphthalene. The class given is ADME, cell-based.
The target in series [23] is T1, E3 ubiquitin-protein ligase XIAP. This is another data set of the same source.

Some results are limits rather than exact numbers.

T2 sequence (P08684 whole entry): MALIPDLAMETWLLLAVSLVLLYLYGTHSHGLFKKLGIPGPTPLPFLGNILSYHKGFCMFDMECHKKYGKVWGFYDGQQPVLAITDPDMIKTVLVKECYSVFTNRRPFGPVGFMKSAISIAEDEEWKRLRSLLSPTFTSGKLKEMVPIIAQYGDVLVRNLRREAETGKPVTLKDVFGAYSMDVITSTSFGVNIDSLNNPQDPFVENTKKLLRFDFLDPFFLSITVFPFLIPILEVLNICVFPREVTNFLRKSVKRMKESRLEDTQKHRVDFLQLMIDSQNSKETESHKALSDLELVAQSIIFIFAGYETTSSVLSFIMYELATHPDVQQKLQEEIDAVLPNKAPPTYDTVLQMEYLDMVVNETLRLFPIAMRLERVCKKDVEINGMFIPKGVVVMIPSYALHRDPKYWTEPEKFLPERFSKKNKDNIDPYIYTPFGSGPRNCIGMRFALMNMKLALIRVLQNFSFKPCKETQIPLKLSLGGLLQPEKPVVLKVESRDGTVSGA
T1 sequence (P98170 whole entry): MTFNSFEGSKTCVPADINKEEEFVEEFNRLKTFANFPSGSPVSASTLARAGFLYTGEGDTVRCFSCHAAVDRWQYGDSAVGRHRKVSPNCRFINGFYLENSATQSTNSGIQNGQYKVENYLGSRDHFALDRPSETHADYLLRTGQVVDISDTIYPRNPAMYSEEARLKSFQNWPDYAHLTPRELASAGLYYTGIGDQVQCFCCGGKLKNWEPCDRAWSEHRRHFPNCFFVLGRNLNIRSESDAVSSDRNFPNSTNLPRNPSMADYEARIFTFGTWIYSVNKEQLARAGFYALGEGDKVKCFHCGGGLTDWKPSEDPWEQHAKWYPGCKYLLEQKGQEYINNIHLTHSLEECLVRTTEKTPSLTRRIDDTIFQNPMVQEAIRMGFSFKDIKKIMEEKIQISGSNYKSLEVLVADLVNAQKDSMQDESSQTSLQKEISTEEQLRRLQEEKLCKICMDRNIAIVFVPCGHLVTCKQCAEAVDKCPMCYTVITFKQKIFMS
T3 sequence (Q13490 whole entry, the tested form may be a part): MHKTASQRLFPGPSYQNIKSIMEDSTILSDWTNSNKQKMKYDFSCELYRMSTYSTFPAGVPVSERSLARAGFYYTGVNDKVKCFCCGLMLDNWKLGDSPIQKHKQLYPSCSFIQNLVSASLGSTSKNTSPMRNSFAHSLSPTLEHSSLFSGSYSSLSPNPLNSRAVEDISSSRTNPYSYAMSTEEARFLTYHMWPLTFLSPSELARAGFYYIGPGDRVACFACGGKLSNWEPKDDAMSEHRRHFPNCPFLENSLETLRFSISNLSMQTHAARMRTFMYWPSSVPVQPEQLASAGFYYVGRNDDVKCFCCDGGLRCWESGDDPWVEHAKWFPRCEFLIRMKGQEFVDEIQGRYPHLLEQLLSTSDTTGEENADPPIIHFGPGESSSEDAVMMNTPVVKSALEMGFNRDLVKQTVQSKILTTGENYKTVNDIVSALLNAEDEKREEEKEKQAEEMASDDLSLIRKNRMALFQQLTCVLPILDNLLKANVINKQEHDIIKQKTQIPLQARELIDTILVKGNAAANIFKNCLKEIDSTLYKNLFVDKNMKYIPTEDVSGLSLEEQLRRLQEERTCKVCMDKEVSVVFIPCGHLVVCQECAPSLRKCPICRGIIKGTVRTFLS

One may read the IC50 as the concentration at which inhibition is half-maximal. High values mean a need for much substance, low ones inhibition by little substance. In the case of `CN[C@@H](C)C(=O)N[C@@H]1C(=O)N(Cc2nn(-c3ccccc3C#N)c3ccccc23)c2ccccc2OC12CCOCC2`, the concentration for half-maximal inhibition (IC50) in [1] is > 54.8 µM.
On to `CN[C@@H](C)C(=O)N[C@H]1CCc2ccccc2N(CCc2ccccc2)C1=O`, for which the IC50 in series [1] was > 54 µM.
With `CN[C@@H](C)C(=O)N[C@H]1CCc2ccccc2N(Cc2c(C)ccc3ccccc23)C1=O`, the IC50 in [1] is > 54 µM.
Turning to `COc1ccc2cc(Br)ccc2c1CN1C(=O)[C@@H](NC(=O)[C@@H](N)[C@H](C)O)CCc2ccccc21`, the IC50 in [1] is > 54 µM.
As for `CN[C@@H](C)C(=O)N[C@H]1CCc2ccccc2N(Cc2ccccc2)C1=O`, the IC50 in series [1] is > 54 µM.
In general, clearance refers to the volume of plasma or blood freed of the substance per unit of time. With `CN[C@@H](C)C(=O)N[C@H]1CCc2ccccc2N(Cc2c(OC)ccc3cc(Br)ccc23)C1=O.Cl`, the IC50 in series [1] was > 54 µM. The clearance in series [2] amounted to 116 mL/min/kg. Besides, the remaining at 4 h, 1 µM in [3] turned out to be 40%. Also, the Stability entry (with Plasma; in series [4]) was “Unstable” in each case.
With `CN[C@@H](C)C(=O)N[C@H]1COc2ccccc2N(Cc2c(OC)ccc3cc(Br)ccc23)C1=O`, the remaining at 4 h, 1 µM in series [3] stood at 7%.
For the compound `CN[C@@H](C)C(=O)N[C@H]1CCc2ccccc2N(Cc2cccc3ccccc23)C1=O`, the IC50 in series [1] was > 54 µM.
Turning to `CCN[C@@H](C)C(=O)N[C@H]1CCc2ccccc2N(Cc2c(OC)ccc3cc(Br)ccc23)C1=O`, the IC50 in series [1] is > 54 µM.
Still for that read-out and setting: the figure for `CN[C@@H](C)C(=O)N[C@H]1CCc2ccccc2N(Cc2c(OC)ccc3ccccc23)C1=O` is > 54 µM; for `CN[C@@H](C)C(=O)N[C@H]1CCc2ccccc2N(Cc2ccc(C)c3ccccc23)C1=O` it is > 54 µM.
By bioavailability is commonly meant the share of a dose that reaches the circulation, judged against a reference dose that is usually intravenous. Low readings indicate poor availability, high ones good availability. In general, AUC refers to concentration integrated over time. For orientation: Cmax means the maximum level reached in the sampled fluid or tissue. By half-life is commonly meant the time needed for the level to fall by half in the phase considered. Higher therefore signals slow decline. In [5], `CN[C@@H](C)C(=O)N[C@@H]1C(=O)N(Cc2c(C#N)n(-c3ccccc3C#N)c3ccccc23)c2ccccc2OC12CCOCC2.Cl` gave a bioavailability of 53%. The AUC in series [6] was determined as 543 ng·h/mL; in series [18] it was 2860 ng·h/mL. Moreover, the Cmax in [7] was determined as 495 ng/mL; in series [14] it was 647 ng/mL. Besides, the “inhibition (INH)” value against Cytochrome P450 3A4 [8] and at Cytochrome P450 3A4 [10] was “Active” throughout. For the same compound, the outcome at Cytochrome P450 3A4 [9] was Active. For the same compound, the Vd in series [11] is 8.6 L/kg. Besides, in [12], the clearance came out at 33 mL/min/kg. The figures for the IC50 in series [13] and in [17] were > 55 µM and 0.271 µM, respectively. Also, the half-life in [15] was 5 h; in series [16], 6.9 h.
As to `CN[C@H](C)C(=O)N[C@H]1CCc2ccccc2N(Cc2c(OC)ccc3cc(Br)ccc23)C1=O`, the IC50 in [1] is > 54 µM.
For `CN[C@@H](C)C(=O)N[C@@H]1C(=O)N(Cc2c(OC)ccc3cc(Br)ccc23)c2ccccc2OC12CCOCC2.Cl`, the Drug metabolism result in the series with Hepatocyte [19], in the series with Hepatocyte [20], in the series on Hepatocyte [21] and with Hepatocyte [22] was “Active” in each case. Besides, in series [3], the remaining at 4 h, 1 µM was 88%.
Take `C[C@H](N)C(=O)N[C@@H]1C(=O)N(C)CCc2ccccc21`: the IC50 is > 54.2 µM in series [1] and 14.4 µM in series [23].
Turning to `CN[C@@H](C)C(=O)N[C@H]1CCc2ccccc2N(Cc2ccc3ccccc3c2)C1=O`, the IC50 in series [1] is > 54 µM.
